Tested on: Primary adult CD34+ human hematopoietic stem cells (HSCs)
Experiment: % CD34+ assay: HSC expansion screen, dose response
Assay type: cell-based
Details: Homo sapiens, Hematopoietic stem cell; dose response 1 nM to 10 μM; total number and/or percent of CD34+ cells
Experimental: Primary adult CD34^+ human hematopoietic stem cells (HSCs) are cultured and screened to identify compounds of the invention that facilitate HSC expansion. The cells are analyzed for the presence of the desired phenotype (CD34 expression). Compounds of the invention promote HSC expansion in a dose dependent manner.
Culture Medium: StemSpan SFEM medium is serum-free medium (StemCell Technologies, Vancouver, BC) supplemented with the following human recombinant cytokines: thrombopoietin, interleukin-6, Flt-3 ligand, and stem cell factor (all from R&D Systems, Minneapolis, Minn.), each at a final concentration of 50 ng/mL, with vehicle (DMSO) or a compound of the invention.
Human Cell Culture: Fresh human leukophoresed G-CSF mobilized peripheral blood from normal donors, CD34^+ cells from adult bone marrow and cryopreserved human cord blood CD34^+ cells are purchased from AllCells (Berkeley, Calif.). Human CD34^+ cells are enriched from leukophoresed G-CSF mobilized peripheral blood using magnetic cell sorting (MACS, Direct CD34 Progenitor Cell Isolation Kit, Miltenyi Biotec, Bergisch Gladbach, Germany) and cryopreserved. CD34^+ cell purity, checked by flow Cytometry, is higher than 90%. After thawing, the cell viability tested by trypan blue exclusion is higher than 70%. The thawed cells are centrifuged and resuspended with StemSpan medium before being aliquoted for immediate culture. Cells are plated at 10^4 cells/mL in a 384 well plate (Greiner Bio-One, Monroe, N.C.) with 50 μL of medium per well for 7 days. Every 7 days the cells are transferred to larger well plates and fresh medium is added to keep the cell density between 10^4 and 5×10^5 cells/mL. Cells were cultured at 37° C. in 5% CO2. For transplantation, cells were cultured in 75 cm^2 flasks before the cells were transplanted into mice. At a concentration of 1 micromolar, 4-(2-(2-(benzo[b]thiophen-3-yl)-9-isopropyl-9H-purin-6-ylamino)ethyl)phenol (compound 1, table 1; example 1), 4-(2-(2-(benzo[b]thiophen-3-yl)-9-sec-butyl-9H-purin-6-ylamino)ethyl)phenol (compound 2, table 1), and N-(2-(1H-indol-3-yl)ethyl)-2-(benzo[b]thiophen-3-yl)-9-isopropyl-9H-purin-6-amine (compound 9, table 1) each gives rise to a greater than 10-fold increase in the number of CD34^+ CD45RA^− cells derived from 1000 mPB CD34^+ HSCs after 21 days compared to vehicle. Compounds of the invention were assayed in a dose response format (1 nM to 10 μM) to determine the effective concentration that produced the desired effect in 50% of the cells (EC50).

Compound	EC50
Oc1ccc(CCNc2nc(-c3cncc(F)c3)nc3c2ncn3C2COC2)cc1 [Example 127]	0.47 µM
CC(C)n1cnc2c(NCCc3ccc(O)cc3)nc(-c3cncc(Cl)c3)nc21 [Example 128, 4-(2-(2-(5-Chloropyridin-3-yl)-9-isopropyl-9H-purin-6-ylamino)ethyl)phenol]	0.019 µM
CC(C)n1cnc2c(NCCc3ccc(O)cc3)nc(-c3cncc(C(F)(F)F)c3)nc21 [Example 129]	0.12 µM
CCC(C)n1cnc2c(NCCc3c[nH]c4ccccc34)nc(-c3cncc(C#N)c3)nc21 (stereo not drawn) [Example 130]	0.001 µM
CC[C@@H](C)n1cnc2c(NCCc3c[nH]c4ccccc34)nc(-c3cncc(C)c3)nc21 [Example 131R]	0.003 µM
CC[C@H](C)n1cnc2c(NCCc3c[nH]c4ccccc34)nc(-c3cncc(C)c3)nc21 [Example 131S]	0.003 µM
CCC(C)n1cnc2c(NCCc3c[nH]c4ccccc34)nc(-c3cncc(C)c3)nc21 (stereo not drawn) [Example 131]	0.004 µM
CC[C@@H](C)n1cnc2c(NCCc3c[nH]c4ccccc34)nc(-c3cncc(F)c3)nc21 [Example 132R]	0.001 µM
CC[C@H](C)n1cnc2c(NCCc3c[nH]c4ccccc34)nc(-c3cncc(F)c3)nc21 [Example 132S]	0.002 µM
CCC(C)n1cnc2c(NCCc3c[nH]c4ccccc34)nc(-c3cncc(F)c3)nc21 (stereo not drawn) [Example 132]	0.003 µM
N#Cc1cncc(-c2nc(NCCc3ccc(O)cc3)c3ncn(C4COC4)c3n2)c1 [Example 133]	0.18 µM
CC(C)n1ncc2c(NCCc3ccc(O)cc3)nc(-c3csc4ccccc34)nc21 [Example 135]	0.38 µM
Cc1cc(O)ccc1CCNc1nc(-c2cccnc2)nc2c1ncn2C(C)C [Example 138]	0.4 µM
CC(C)n1cnc2c(NCCc3ccc(O)cc3)nc(-c3ccc(C#N)nc3)nc21 [Example 139]	1.3 µM
CC(C)n1cnc2c(NCCc3ccc(O)cc3)nc(-c3cnccc3C#N)nc21 [Example 140]	0.091 µM
CC(C)n1ccc2c(NCCc3ccc(O)cc3)nc(-c3cncc(F)c3)nc21 [Example 141, 4-(2-(2-(5-Fluoropyridin-3-yl)-7-isopropyl-7H-pyrrolo[2,3-d]pyrimidin-4-ylamino)ethyl)phenol]	0.16 µM
CC(C)n1cnc2c(NCCc3ccc(O)cc3)nc(-c3cccnc3C#N)nc21 [Example 143]	4.3 µM
Cc1ccc(-c2nc(NCCc3ccc(O)cc3)c3ncn(C(C)C)c3n2)cn1 [Example 144]	0.16 µM
CC(C)n1cnc2c(NCCc3ccc(O)cc3)nc(-c3cncc4ccccc34)nc21 [Example 145]	5.4 µM
CC(C)n1cnc2c(NCCc3ccc(O)c(Cl)c3)nc(-c3cccnc3)nc21 [Example 146]	0.24 µM

Compound	EC50
CC(C)n1cnc2c(NCCc3ccc(O)cc3F)nc(-c3cccnc3)nc21 [Example 147]	0.092 µM
CC(C)n1cnc2c(NCCc3c[nH]c4ccc(Cl)cc34)nc(-c3cccnc3)nc21 [Example 148]	0.75 µM
CC(C)n1cnc2c(NCCc3c[nH]c4ccc(F)cc34)nc(-c3cccnc3)nc21 [Example 149]	0.52 µM
Cc1cc(CCNc2nc(-c3cccnc3)nc3c2ncn3C(C)C)ccc1O [Example 150]	0.057 µM
Oc1ccc(CCNc2nc(-c3csc4ccccc34)nc3c2ncn3C2COC2)cc1 [Example 151]	0.17 µM
Oc1ccc(CCNc2nc(-c3csc4ccccc34)nc3c2ncn3[C@H]2CCOC2)cc1 [Example 152]	0.35 µM
Oc1ccc(CCNc2nc(-c3csc4ccccc34)nc3c2ncn3[C@@H]2CCOC2)cc1 [Example 153, (R)-4-(2-(2-(benzo[b]thiophen-3-yl)-9-(tetrahydrofuran-3-yl)-9H-purin-6-ylamino)ethyl)phenol]	0.22 µM
CC(CO)n1cnc2c(NCCc3c[nH]c4ccccc34)nc(-c3cncc(F)c3)nc21 (stereo not drawn) [Example 157, 2-(6-(2-(1H-indol-3-yl)ethylamino)-2-(5-fluoropyridin-3-yl)-9H-purin-9-yl)propan-1-ol]	0.005 µM
C[C@H](CO)n1cnc2c(NCCc3c[nH]c4ccccc34)nc(-c3cncc(F)c3)nc21 [Example 157R, (R)-2-(6-(2-(1H-indol-3-yl)ethylamino)-2-(5-fluoropyridin-3-yl)-9H-purin-9-yl)propan-1-ol]	0.008 µM
C[C@@H](CO)n1cnc2c(NCCc3c[nH]c4ccccc34)nc(-c3cncc(F)c3)nc21 [Example 157S, (S)-2-(6-(2-(1H-indol-3-yl)ethylamino)-2-(5-fluoropyridin-3-yl)-9H-purin-9-yl)propan-1-ol]	0.003 µM
Fc1cncc(-c2nc(NCCc3c[nH]c4ccccc34)c3ncn([C@@H]4CCOC4)c3n2)c1 [Example 158]	0.012 µM
CC(C)n1cnc2c(NCCc3ccc(O)cc3)nc(-n3cnc4cccnc43)nc21 [Example 159]	0.59 µM
CC(C)n1cnc2c(NCCc3ccc(O)cc3)nc(-n3cnc4ncccc43)nc21 [Example 160]	1.9 µM
CC(C)n1cnc2c(NCCc3ccc(O)cc3)nc(-c3cncc(F)c3)cc21 [Example 161, 4-(2-(6-(5-Fluoropyridin-3-yl)-1-isopropyl-1H-imidazo[4,5-c]pyridin-4-ylamino)ethyl)phenol]	0.17 µM
Cc1ncn(-c2nc(NCCc3ccc(O)cc3)c3ncn(C(C)C)c3n2)c1C [Example 162]	0.14 µM
CC(C)n1cnc2c(NCCc3cccnc3)nc(-c3cncc(F)c3)nc21 [Example 166]	7.5 µM
CC(C)n1cnc2c(NCC(O)c3ccc(O)cc3)nc(-c3cncc(F)c3)nc21 (stereo not drawn) [Example 167]	0.29 µM
COc1ccc2c(CCNc3nc(-c4cncc(F)c4)nc4c3ncn4C(C)C)c[nH]c2c1 [Example 169]	0.044 µM
CC(C)n1cnc2c(NCCc3c[nH]c4ccccc34)nc(-c3cncc(F)c3)nc21 [Example 170]	0.006 µM
COc1ccc2[nH]cc(CCNc3nc(-c4cncc(F)c4)nc4c3ncn4C(C)C)c2c1 [Example 172]	0.42 µM

Compound	EC50
C=C(C)n1cnc2c(NCCc3c[nH]c4ccccc34)nc(-c3cncc(F)c3)nc21 [Example 173]	0.012 µM
CC(C)n1cnc2c(NCCc3ccc(O)nc3)nc(-c3cncc(F)c3)nc21 [Example 174]	2.2 µM
CC(C)n1cnc2c(NCCc3c[nH]c4ncccc34)nc(-c3cncc(F)c3)nc21 [Example 175]	0.42 µM
CCN(CC)CCOc1ccc2c(CCNc3nc(-c4cncc(F)c4)nc4c3ncn4C(C)C)c[nH]c2c1 [Example 176]	1.1 µM
CC(C)n1cnc2c(NCCc3ccc(O)cc3)cc(-c3cncc(F)c3)nc21 [Example 177, 4-(2-(5-(5-Fluoropyridin-3-yl)-3-isopropyl-3H-imidazo[4,5-b]pyridin-7-ylamino)ethyl)phenol]	0.14 µM
CCC(C)n1cnc2c(NCCc3c[nH]c4ccccc34)nc(-n3ccnc3C)nc21 (stereo not drawn) [Example 178]	0.003 µM
CCc1nccn1-c1nc(NCCc2ccc(O)cc2)c2ncn(C(C)C)c2n1 [Example 180]	0.13 µM
CCCc1nccn1-c1nc(NCCc2ccc(O)cc2)c2ncn(C(C)C)c2n1 [Example 181]	2.5 µM
CC(C)n1cnc2c(NCCc3c[nH]c4cc(O)ccc34)nc(-c3cncc(F)c3)nc21 [Example 182]	5.1 µM
Cc1cncc(-c2nc(NCCc3c[nH]c4ccccc34)c3ncn(C(C)C)c3n2)c1 [Example 183]	0.01 µM
Cc1nccn1-c1nc(NCCc2c[nH]c3ccccc23)c2ncn(C(C)C)c2n1 [Example 184]	0.008 µM
Cc1cccc2c(CCNc3nc(-c4cncc(F)c4)nc4c3ncn4C(C)C)c[nH]c12 [Example 185]	0.024 µM
Fc1cncc(-c2nc(NCCc3c[nH]c4ccccc34)c3ncn(C4COC4)c3n2)c1 [Example 186]	0.007 µM
Cc1cncc(-c2nc(NCCc3c[nH]c4ccccc34)c3ncn(C4COC4)c3n2)c1 [Example 187]	0.034 µM
CC(C)n1cnc2c(NCCc3c[nH]c4cc(F)ccc34)nc(-c3cncc(F)c3)nc21 [Example 188]	0.005 µM
Cc1ccc2c(CCNc3nc(-c4cncc(F)c4)nc4c3ncn4C(C)C)c[nH]c2c1 [Example 189]	0.026 µM
Cc1[nH]c2ccccc2c1CCNc1nc(-c2cncc(F)c2)nc2c1ncn2C(C)C [Example 190]	0.005 µM
CC(C)n1cnc2c(NCCc3c[nH]c4cccc(F)c34)nc(-c3cncc(F)c3)nc21 [Example 195]	0.003 µM
CC(C)n1cnc2c(NCCc3c[nH]c4c(F)cccc34)nc(-c3cncc(F)c3)nc21 [Example 196]	0.002 µM
Cc1cccc2[nH]cc(CCNc3nc(-c4cncc(F)c4)nc4c3ncn4C(C)C)c12 [Example 197]	0.011 µM
